ChEMBL document CHEMBL4043105, “Design and synthesis of potent and orally active GPR4 antagonists with modulatory effects on nociception, inflammation, and angiogenesis” (Bioorg Med Chem, 2017)

Columns and labels:
Rattus norvegicus [1] = species: Rattus norvegicus; conditions: in vivo, po, 3 mg/kg
in vivo [2] = conditions: Sprague-Dawley, rat, iv, 1 mg/kg
Rattus norvegicus [3] = species: Rattus norvegicus; conditions: in vivo, po, 3 mg/kg; remark: listed apart in the source
in vivo [4] = conditions: Sprague-Dawley, rat, iv, 1 mg/kg; remark: listed apart in the source
in vivo [5] = conditions: Sprague-Dawley, rat, po, 3 mg/kg

Cmax/dose (Rattus norvegicus [1]): 193 nM
half-life (in vivo [2]): 5.6 h
AUC/dose (Rattus norvegicus [3]): 2196 µg·min/mL
clearance (in vivo [4]): 15 mL/min/kg
bioavailability (in vivo [5]): 86%
Structure (SMILES): CCc1nc2c(C)cc(C)nc2n1Cc1ccc(/C=C/CN2CCN(C(C)C)CC2)cc1
